SMILES strings stand for the structures. Converted amounts (≈) assume the structure as drawn.

A short description of series [1]: Ratio of solubility for drug to taspine. Type of series: physicochemical.
For the next series, the system named is A549. In words: Antiproliferative activity against human A549 cells. Type of series: functional, cell-based.
In series [2] the test system is Caco-2. The series can be described thus: Antiproliferative activity against human Caco-2 cells. The class given is functional, cell-based.
A short description of another series: Polar surface area. Conditions: pH 7.4.
The nature of series [3]: Dissociation constant, pKa. To be noted: pH 7.4.
Series [4] is described as follows: Solubility of the compound.
For series [5], the system named is ECV-304. In words: Antiproliferative activity against human ECV304 cells. Type of series: functional, cell-based.
Series [6] has as its system Caco-2. In words: Ratio of IC50 drug to IC50 taspine against human Caco-2 cells. Type of series: functional.
Series [7] concerns ECV-304. In words: Ratio of IC50 drug to IC50 taspine against human ECV304 cells. Type of series: functional.

A word on the IC50: it is the concentration needed to halve the response being measured. Lower therefore signals higher potency. A word on the pKa: it is the pH at which an ionisable group is half protonated. Read a low pKa as a group that gives up its proton readily. Broadly, the solubility is the concentration that dissolves in the medium under given conditions. Higher therefore signals much dissolved substance. Take `COC(=O)c1cc(OC(=O)c2ccc(OC)c(O)c2)c(OC)cc1CCN(C)C`: the Ratio in series [1] was 13. Moreover, the values for the IC50 with A549 and in the series with Caco-2 [2] were 453 nM and 11000 nM, respectively. In the series “Polar surface area”, this molecule displayed a PSA of 94.5 Å2. The molecule also yielded a pKa in [3] of 8.75. In [4], this molecule registered a solubility of 140 µg/mL (≈ 347 µM).
As to `COC(=O)c1cc(OC(=O)c2ccc(OC)c(O)c2)c(OC)cc1CCNc1ccc(F)c(Cl)c1`, the IC50 with A549 is 180 nM; with ECV-304 [5], 61 nM. In addition, the PSA in “Polar surface area” came out at 103 Å2. The molecule further showed a pKa in series [3] of 3.65. The concentration in solution in [4] (solubility) was 61 µg/mL (≈ 121 µM).
Regarding `COC(=O)c1ccc(OC)c(OC(=O)c2cc(O)c(OC)cc2CCN(C)C)c1`, the IC50 stood at 111 nM with A549 and 3100 nM in the series with Caco-2 [2]. The molecule further came in with a PSA in the series “Polar surface area” of 94.5 Å2. In series [3], this molecule came in with a pKa of 8.57. In series [4], this molecule returned a solubility of 130 µg/mL (≈ 322 µM).
As for `COC(=O)c1cc(OC(=O)c2ccc(OC)c(O)c2)c(OC)cc1CCN1CCOCC1`, the Ratio in series [1] came out at 13. Further, the IC50 is 158 nM with A549, 52.5 nM in the series with Caco-2 [2] and 2.67 nM in the series with ECV-304 [5]. The “Ratio IC50” value turned out to be 3 in the series on Caco-2 [6] and 10 in the series on ECV-304 [7]. Further, in the series “Polar surface area”, the PSA came to 104 Å2. Also, the pKa in [3] was determined as 7.28. Also, the solubility in series [4] is 270 µg/mL (≈ 606 µM).
Take `COc1ccc2c(=O)oc3c(OC)cc(CCN(C)C)c4c(=O)oc1c2c34` [TASPINE]: the results for the IC50 in the series on A549, with Caco-2 [2] and in the series with ECV-304 [5] were 4.18 nM, 153 nM and 22.3 nM, respectively. The PSA in the series “Polar surface area” worked out at 74.3 Å2. This molecule also registered a pKa in [3] of 8.21. The amount in solution in [4] (solubility) came to 21 µg/mL (≈ 56.9 µM).

These data come from ChEMBL document CHEMBL1153246, “Discovery of novel taspine derivatives as antiangiogenic agents” (Bioorg Med Chem Lett, 2010).
